Experiments:
[1] = mouse, in vivo
Source text: Control (saline-injected) mice were euthanized early due to tumor ulceration, in compliance with IACUC policy. […] FIG. 30E, TUNEL staining and quantification in liver and kidney tissue obtained from treated mice. Micrographs obtained at 20× magnification (left set of panels) show fluorescently-stained nuclei in apoptotic cells (delineated areas are enlarged in micrographs to the right). Graph summarizes relative fluorescence intensities of each treated tissue (N>200 fields per treatment).
Fixed, sectioned tissues were processed by incubation in a dry 60° C. oven for 1 h followed by sequential submersion in xylenes for 4 min×5, then hydration in 100%, 95%, 90%, 80%, 70% ethanol for 3 min, 2 times each and final submersion in water. After Proteinase K (20 ug/ml in 10 mM Tris pH 7.8) incubation and rinsing in PBS, sections were treated for TUNEL staining following the manufacturer's instructions (XXX) and assessed by confocal fluorescence imaging. Here, 10 TUNEL images at different locations per tissue were acquired using a Leica confocal SPE microscope (20×, ex: 488 nm, and em: 530 nm). Central regions of each tissue were imaged to avoid fixation artifacts. Nuclear fluorescence intensities, reflective of DNA fragmentation, were measured and averaged using ImageJ.

[2] = mouse, in vivo; remark: listed apart in the source
Source text: Histology of myocardia from treated mice. Micrographs show representative H&E stained specimens from treated mice.
Female immunodeficient (nu/nu) mice (6-8 weeks; Charles River Laboratories International, Wilmington, MA, USA) received subcutaneous bilateral flank injections of 1×10^7 indicated cells and monitored until tumors reached ˜200-300 mm3, at which point the following treatments were initiated. […] To assess therapeutic efficacy, a new group of tumor-bearing mice received daily i.v. (tail vein) injections of HerDox or Dox at indicated doses for 7 days followed by continued monitoring of tumor volumes (assessed by measuring tumor length and width using calipers, and applying LxW2), animal weights, and heart function. […] Cardiac function in anesthetized mice was evaluated by a Vevo 770 High-Frequency Ultrasound system (VisualSonics, Toronto, Canada). Heart rate and body temperature were monitored. Superficial hair was removed from the region of interest with a depilatory cream (Nair) before imaging. The 2-dimensional guided M-mode images of the left ventricle were obtained in the short-axis view at the papillary level with the mouse in the supine position. All primary measurements were traced manually and digitized by goal-directed software installed within the echocardiograph. Three beats were averaged for each measurement. All measurements were done from leading edge to leading edge according to the American Society of Echocardiography guidelines. At animal study completion, tissue harvested from euthanized mice were fixed in 4% paraformaldehyde/PBS at 4° C. for 24 h followed by transfer into 20% sucrose/PBS and storage at −80° C. before immunohistochemical processing. Specimens and hematoxylin/eosin staining were prepared by AML Laboratories, Inc., Baltimore, MD, USA.

[3] = tested on: MDA-MB-435, MDAMB-453, HeLa; test: HerDox cytotoxicity dose curves (metabolic assay, crystal violet); format: cell-based, human; conditions: intermediate HER2 levels; day 3; read-out: CD50 (the source's name)
Experimental: FIG. 21 depicts, in accordance with an embodiment herein, toxicity to cells displaying differential HER2. Cytotoxicities from a range of HerDox doses were assessed on each cell line by metabolic assay and confirmed by crystal violet stain. CD50 values (shown in log scale) were determined by non-linear regression analyses of HerDox dose curves using a scientific graphing program (GraphPad Prism) and confirmed with an on-line calculator (Chang bioscience). The relative HER2 level of each cell line is shown next to each CD50 value.
All treatments, N=3. FIG. 27A. Comparing cytotoxicity to HER2+ (MDAMB-435) and HER2− (MDA-MB-231) cells in separate cultures. Left, Relative survival (as % of untreated cells) on day 3 of treatment. Right, Micrograph of live cells after treatment. Control, mock (HBS) treatment. FIG. 27B, Receptor specificity of cytotoxicity. […] FIG. 27C, Toxicity to cells displaying differential HER2. Cytotoxicities from HerDox titrations were assessed on each cell line by metabolic assay and confirmed by crystal violet stain on day 3 of treatment. CD50 values (shown in log scale) were determined by non-linear regression analyses of HerDox killing curves using GraphPad Prism. The relative HER2 level of each cell line is shown next to each CD50 value. […] Survival was determined by calculating the relative doubling time (DT) of experimental (exp) cells normalized by mock-treated (con) cells based on crystal violet stains (total cells) and GFP fluorescence (MDAMB-231 cells), and applying DTMDA-MB-435=DTTotal-DTMDA-MB-231 as previously described. […] U251 cells were treated once with the indicated HerDox (and competitive inhibitor where indicated) or Dox doses and measured for cell survival at the indicated time points after treatment. * P<0.05 compared to Mock. […]
To assess the contribution of HER2 to therapeutic efficacy in vitro, we determined HerDox CD50 on selected human tumor lines displaying HER2 at relatively high (SKBR3), moderate (MDA-MB-435, MDAMB-453, HeLa), and low to undetectable (MDA-MB-231) levels, according to our receptor subunit profiling of a cell line panel.

[4] = CryoEM of HerDox particles; format: physicochemical; conditions: mostly round particles
Experimental: Sample preparation and imaging was performed by NanoImaging Services, Inc., La Jolla, CA, USA.
CryoEM was performed by NanoImaging Services, Inc. (La Jolla, CA, USA) implementing the following procedures (provided by NanoImaging Services, Inc.): Samples were preserved in vitrified ice supported by carbon coated holey carbon films on 400 mesh copper grids. All samples were prepared by applying a 3 μL drop of undiluted sample suspension to a cleaned grid, blotting away with filter paper and immediately proceeding with vitrification in liquid ethane. Grids were stored under liquid Nitrogen until transferred to the electron microscope for imaging. All grids were prepared the day the sample was delivered (complexes were assembled immediately before delivery). Electron microscopy was performed using an FEI Tecnai T12 electron microscope, operating at 120 KeV equipped with an FEI Eagle 4K×4K CCD camera. Vitreous ice grids were transferred into the electron microscope using a stage that maintains the grids at below −170 C. Images of the grid were acquired at multiple scales to assess the overall distribution of the specimen. After identifying potentially suitable target areas for imaging at lower magnifications, higher magnification images were acquired at nominal magnifications of 52,000× (0.21 nm/pixel) and 21,000× (0.50 nm/pixel). […]

[5] = Stability in complete cell culture media; format: in vitro ADME; conditions: up to 24 h
Experimental: (§1) FIG. 34A, HerDox stability in different storage conditions. HerDox was incubated at indicated times and temperatures was applied to a 10K mwco ultrafiltration membrane every other day, and retentate and filtrate A480 measured to determine relative Dox retention or release from complexes, respectively. […] FIG. 34B, Assessing stability in serum-containing media by ultrafiltration. HerDox immobilized on Ni-NTA beads (Qiagen Inc., Valencia. CA, USA) by incubation on ice for 2 h with agitation followed by free HerDox removal via bead pelleting/washing in HBS received 10% fetal bovine serum (FBS), to mimic cell culture conditions, and incubated at 37° C. with agitation for the indicated time-points. At each time-point, samples were pelleted and mean A480±SD (N=3) of supernatants (Released) and bead eluates (Retained) were measured. […] Relative Dox release or retention in serum is expressed as normalized to control (corresponding serum-lacking sample). […] Dox fluorescence (top panel) was visualized by UV excitation. […] Dox (1.6 nmoles) was added to serum coated wells and incubated for 30 min at 37° C. with agitation before supernatants were removed and the wells washed once with HBS before fluorescence spectra were measured for pre-incubation sample (Input), supernatant (Free) and wells (Serum-bound). Fluorescence spectra were obtained at Ex 485 nm/Em 520-750 nm with a 515 nm cutoff filter.

[6] = HerDox stability in storage, ultrafiltration; format: physicochemical; conditions: 4° C., RT, or 37° C. over a 12 day period
Experimental: as §1, with “filter. […]” for “filter.”

Molecule	apoptosis in the kidney (TUNEL) [1]	apoptosis in the liver (TUNEL) [1]	myocardial histology [2]	stroke volume, cardiac output, left ventricular internal dimension and volume ([2]; 0.004 mg/kg)	IC50 [3]	particle diameter [4]	loss of Dox in complete cell culture media [5]	Dox release in storage [6]
COc1cccc2c1C(=O)c1c(O)c3c(c(O)c1C2=O)C[C@@](O)(C(=O)CO)C[C@@H]3O[C@H]1C[C@H](N)[C@H](O)[C@H](C)O1.Cl [Dox, Doxorubicin-HCl, reference compound]	Neither Dox nor HerDox showed substantial apoptosis	marked apoptosis	myofibrillar degeneration	modest to marked reductions				
HerDox: self-assembled nanoparticle of oligonucleotide duplex, doxorubicin and HerPBK10 (conjugate) LPPRLKEMKSQESAAGSKLVLRCETSSEYSSLRFKWFKNGNELNRKNKPQNIKIQKKPGKSELRINKASLADSGEYMCKVISKLGNDSASANITIVESNEIITGMPASTEGAYVSSESPIRISVSTEGANTSSSTSTSTTGTSHLVKCAEKEKTFCVNGGECFMVKDLSNPSRYLCKCQPGFTGARCTENVPMKVQNQEKAEELYMRRAAMYEEGPPPSYESVVSAAPVAAALGSPFDAPLDPPFVPPRYLRPTGGRNSIRYSELAPLFDTTRVYLVDNKSTDVASLNYQNDHSNFLTTVIQNNDYSPGEASTQTINLDDRSHWGGDLKTILHTNMPNVNEFMFTNKFKARVMVSRLPTKDNQVELKYEWVEFTLPEGNYSETMTIDLMNNAIVEHYLKVGRQNGVLESDIGVKFDTRNFRLGFDPVTGLVMPGVYTNEAFHPDIILLPGCGVDFTHSRLSNLLGIRKRQPFQEGFRITYDDLEGGNIPALLDVDAYQASLKDDTEQGGGGAGGSNSSGSGAEENSNAAAAAMQPVEDMNDHAIRGDTFATRAEEKRAEAEAAAEAAAPAAQPEVEKPQKKPVIKPLTEDSKKRSYNLISNDSTFTQYRSWYLAYNYGDPQTGIRSWTLLCTPDVTCGSEQVYWSLPDMMQDPVTFRSTRQISNFPVVGAELLPVHSKSFYNDQAVYSQLIRQFTSLTHVFNRFPENQILARPPAPTITTVSENVPALTDHGTLPLRNSIGGVQRVTITDARRRTCPYVYKALGIVSPRVLSSRTFKKKKKKKKKK					300 to 800 nM	~10 nm	no loss of Dox from the complex	no detectable Dox release
